The source of these data is patent publication US20090215908A1, “TOLL LIKE RECEPTOR (TLR) SIGNALING ANTAGONIST” (RELIANCE LIFE SCIENCES PVT. LTD., priority 2007, published 2009).

For one data set, the system named is TNF. The data set is described as follows: Pre-screen of anti-TNF activity, cells + LPS (Table 2). It is filed as cell-based.
Data set [1] addresses T1, TLR4 (Homo sapiens, UniProt O00206).
T1 construct: endogenous in cells
The experiment in a line: TLR4 ligand induced TNF-α secretion in THP-1 cells (ELISA). It is filed as cell-based. Conditions: 1 hr pretreatment, TLR4 ligand 750 ng/ml, 24 hrs. The protocol: (§1) The present invention has checked the effect of various TLR ligands on THP-1 monocytes, PBMCs and their ability to activate and release TNF-α. For this purpose about 9 TLR ligands were used. These ligands were obtained from Apotech Cat; APO-54N-018-K101 and assayed for TNF-α release in culture supernatants. THP-1 (FIG. 1a) and PBMCs (2×10^5 cells/well) (FIG. 1b) were plated in 96-well plate. The cells were pretreated with RSCL-0520 in DMSO 1 hr prior to TLR ligand treatment. Following 1 hr pre-treatment, the cells were treated with TLR ligands [TLR2, TLR5 and TLR6-75 ng/ml each, TLR3-75 μg/ml, TLR4-750 ng/ml, TLR7, TLR8 and TLR9-7.5 μg/ml) for 24 hrs. The culture supernatant were collected after the stipulated time and assayed for TNF-α release using a Duoset Enzyme-Linked ImmunoSorbent Assay (ELISA) detection Kit (R&D systems, MN 55413, USA; Cat: DY-210 E). Simultaneously, supernatants from cells treated with ligands without RSCL-0520 pre-treatment and RSCL-0520 without ligand treatment were collected which served as respective controls.
On the technique in general: An ELISA detects its analyte on a solid surface through an enzyme-linked reagent.

The next data set concerns THP-1 cells. The experiment in a line: Toxicity to THP-1 cells by MTT assay. It is filed as cell-based, human. The following applies: analyzed in tandem with TNF-α assay. An excerpt: The toxicity of RSCL-0520 (FIG. 2b) was also by treating cells with RSCL-0520 by MTT assay. […] The viability of the cells (analyzed in tandem by MTT) was not affected by RSCL-0520 indicating its non-toxic nature.
(In general: Formazan colour is commonly taken as a measure of viable cells.)

The target of data set [2] is T1, TLR4. The experiment in a line: TLR4 ligand induced TNF-α secretion in PBMCs (ELISA). The following applies: 1 hr pretreatment, TLR4 ligand 750 ng/ml, 24 hrs. It is filed as cell-based. The protocol:
as §1

In data set [3] the test system is serum TNF-α. The data set is described as follows: LPS induced TNF-α release in Balb/c mice, treatment post LPS. Type of data set: in vivo. Here is the method:
(§2) The present invention has studied the ability of RSCL-0520 to exert protection against inflammatory agents in a mice (Balb/c) model. Balb/c (5-6 weeks) mice were injected with LPS (225 μg) intraperitoneally with and without pretreatment of RSCL-0520 (10 and 20 mg/kg). The compound was injected intraperitoneally 30 min before LPS treatment. The mice were monitored for 1 hr post LPS treatment. Untreated mice served as controls. Blood from retro-orbital plexus was collected under anesthesia 1 hr post LPS injection. Serum collected was analysed for TNF-α secretion using an ELISA detection kit.
Our results have more significance from the post LPS treatment of RSCL-0520. Here we have stimulated the inflammation process in mice with an injection of LPS (225 μg) intraperitoneally and 30 min post LPS, we have challenged the ability of RSCL-0520 at two different doses (10 mg/kg, 20 mg/kg) to inhibit the TNF-α secretion.

The subject of data set [4] is serum TNF-α. The experiment in a line: LPS induced TNF-α release in Balb/c mice, pre-treatment. Type of data set: in vivo. The following applies: serum 1 hr post LPS. Here is the method: as §2

T1 sequence (O00206 24-839): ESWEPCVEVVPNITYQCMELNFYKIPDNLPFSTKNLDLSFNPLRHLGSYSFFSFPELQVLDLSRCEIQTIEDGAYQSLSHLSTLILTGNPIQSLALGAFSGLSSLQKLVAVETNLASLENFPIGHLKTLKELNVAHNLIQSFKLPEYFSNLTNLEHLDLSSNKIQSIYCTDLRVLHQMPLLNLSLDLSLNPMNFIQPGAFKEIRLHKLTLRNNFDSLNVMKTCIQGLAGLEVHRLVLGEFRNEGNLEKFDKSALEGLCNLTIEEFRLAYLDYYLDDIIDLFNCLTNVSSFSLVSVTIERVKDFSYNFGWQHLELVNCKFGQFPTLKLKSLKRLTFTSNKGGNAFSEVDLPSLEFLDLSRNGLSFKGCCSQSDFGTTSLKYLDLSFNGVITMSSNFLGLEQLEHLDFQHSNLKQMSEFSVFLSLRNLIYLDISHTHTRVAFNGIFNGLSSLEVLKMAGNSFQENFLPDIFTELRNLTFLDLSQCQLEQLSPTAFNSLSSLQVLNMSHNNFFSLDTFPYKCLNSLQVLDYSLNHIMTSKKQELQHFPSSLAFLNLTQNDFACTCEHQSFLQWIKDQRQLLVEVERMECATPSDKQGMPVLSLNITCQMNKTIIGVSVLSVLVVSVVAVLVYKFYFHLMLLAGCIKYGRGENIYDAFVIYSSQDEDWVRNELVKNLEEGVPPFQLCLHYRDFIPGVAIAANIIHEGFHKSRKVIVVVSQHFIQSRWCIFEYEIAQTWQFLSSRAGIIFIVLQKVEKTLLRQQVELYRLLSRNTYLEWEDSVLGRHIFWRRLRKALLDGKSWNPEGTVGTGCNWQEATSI
T1 sequence (Q9Y6Y9 17-160 partner limits assumed): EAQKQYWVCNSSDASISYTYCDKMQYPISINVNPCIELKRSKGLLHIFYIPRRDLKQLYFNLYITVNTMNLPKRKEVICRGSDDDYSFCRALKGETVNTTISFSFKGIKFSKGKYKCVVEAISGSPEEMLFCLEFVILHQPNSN

A word on the inhibition: it is the change of the read-out against control, counted positive when it falls. In the case of `COc1c(O)cc2ccc3cc(O)ccc3c2c1OC` [RSCL-0518, 2,7-dihydroxy-3,4-dimethoxyphenanthrene], the inhibition at 1 µM in the data set with TNF (Cells + 1 μM + LPS) was found to be 0%. Moreover, the inhibition at 10 µM in the data set with TNF (Cells + 10 μM + LPS) is 0%. Further, in the data set on TNF (Cells + 50 μM + LPS), the inhibition at 50 µM worked out at 39%. The inhibition at 100 µM with TNF (Cells + 100 μM + LPS) was 87%.

On to `COc1c(OC(C)=O)cc2ccc3cc(OC(C)=O)ccc3c2c1OC` [RSCL-0519, 2,7-diacetoxy-3,4-dimethoxyphenanthrene], for which the inhibition at 1 µM in the data set with TNF (Cells + 1 μM + LPS) is 0%. For the same compound, the inhibition at 10 µM with TNF (Cells + 10 μM + LPS) was 0%. Further, in the data set with TNF (Cells + 50 μM + LPS), the inhibition at 50 µM was 21%. The inhibition at 100 µM with TNF (Cells + 100 μM + LPS) amounted to 72%.

In the case of `COc1cc(O)c2c(c1)CCc1c-2ccc(OC)c1O` [RSCL-0520, 1,5-dihydroxy-2,7-dimethoxy-9,10-dihydrophenanthrene], the “decrease of TNF-α production” value on TLR4 [1] and on TLR4 [2] was about 50% in each case. Also, in the data set with THP-1 cells, the “viability of the cells (MTT)” value is reported as “not affected”. Further, the “inhibition of TNF secretion” value in the data set with serum TNF-α [3] (10 mg/kg given 30 min post LPS 225 μg i.p.) was about 38%; in the data set with serum TNF-α [3] (20 mg/kg given 30 min post LPS 225 μg i.p.) it was 49%. The entries for the “reduction of serum TNF production” value with serum TNF-α [4] (10 mg/kg i.p. 30 min before LPS 225 μg i.p.) and in the data set with serum TNF-α [4] (20 mg/kg i.p. 30 min before LPS 225 μg i.p.) were about 66% and about 70%, respectively. In addition, the inhibition at 1 µM with TNF (Cells + 1 μM + LPS) amounted to 4%. Also, the inhibition at 10 µM in the data set with TNF (Cells + 10 μM + LPS) stood at 40%. The inhibition at 50 µM in the data set with TNF (Cells + 50 μM + LPS) was found to be 95%. Moreover, the inhibition at 100 µM with TNF (Cells + 100 μM + LPS) came to 100%.

For the compound `COc1cc2c(c(OC(C)=O)c1)-c1ccc(OC)c(OC(C)=O)c1CC2` [RSCL-0521, 1,5-diacetoxy-2,7-dimethoxy-9,10-dihydrophenanthrene], the inhibition at 1 µM in the data set with TNF (Cells + 1 μM + LPS) stood at 0%. In addition, the inhibition at 10 µM in the data set on TNF (Cells + 10 μM + LPS) was determined as 13%. Further, the inhibition at 50 µM in the data set on TNF (Cells + 50 μM + LPS) amounted to 76%. Besides, in the data set on TNF (Cells + 100 μM + LPS), the inhibition at 100 µM was determined as 92%.

In the case of `COc1c(OC(=O)/C=C/c2ccc(OC(C)=O)c(OC(C)=O)c2)cc2ccc3cc(OC(=O)/C=C/c4ccc(OC(C)=O)c(OC(C)=O)c4)ccc3c2c1OC` [RSCL-0522, 3,4-dimethoxyphenanthrene-2,7-bis-[(2E)-3-[3,4-bis(acetyloxy)phenyl] acrylate], the “% TNF Inhibition” value is given as 0% with TNF (Cells + 1 μM + LPS), 12% with TNF (Cells + 10 μM + LPS), 37% with TNF (Cells + 50 μM + LPS) and 34% with TNF (Cells + 100 μM + LPS).

Turning to `COc1ccc2c(ccc3cc(OC)c(OC)c(OC)c32)c1` [RSCL-0575, 2,3,4,7-tetramethoxyphenanthrene], in the data set with TNF (Cells + 1 μM + LPS), the inhibition at 1 µM stood at 26%. In addition, the inhibition at 10 µM with TNF (Cells + 10 μM + LPS) is 33%. In addition, the inhibition at 50 µM with TNF (Cells + 50 μM + LPS) stood at 32%. The inhibition at 100 µM in the data set on TNF (Cells + 100 μM + LPS) came to 49%.

Regarding `COc1cc(OCc2ccccc2)c2c(ccc3c(OCc4ccccc4)c(OC)ccc32)c1` [RSCL-0638, 1,5-dibenzyloxy-2,7-dimethoxy phenanthrene], the inhibition at 1 µM with TNF (Cells + 1 μM + LPS) amounted to 0%. For the same compound, the inhibition at 10 µM in the data set on TNF (Cells + 10 μM + LPS) was found to be 0%. In addition, the inhibition at 50 µM with TNF (Cells + 50 μM + LPS) turned out to be 0%. Also, in the data set with TNF (Cells + 100 μM + LPS), the inhibition at 100 µM is 0%.
